The test system of experiment [1] is common warts. Nature of the experiment: Case treatments of common warts on the hands by topical application (Examples 10-11). The conditions noted are these: Example 11, child, 15%. Type of experiment: in vivo, human. The text has this:
A child presented with common verrucae on the dorsum of both hands involving the metacarpal-phalangeal joints for over 3 years. […] After 12 weeks, all warty lesions were gone. Twice a week the warts were gently scrubbed with a stiff nylon bristle brush before application of the tea tree oil emulsion to help remove the dead outer keratinized skin.
A child presented with common warts affecting the palms of both hands resistant to treatment. […] Twice weekly gentle scrubbing with a stiff nylon bristle brush before application of the emulsion to help remove the dead outer keratinized skin was performed.

Experiment [2] has as its system Molluscum contagiosum. The conditions noted are these: in vivo; cited from earlier work.

SMILES strings stand for the structures.

Data on 2 compounds can be found in patent publication US7807202B2, “Compositions for treatment of viral-induced skin lesions and methods of using same” (priority 2003, dated 2010).

As for `O=C(O)c1ccccc1O` [Salicyclic acid], the “outcome of earlier conventional treatment of common warts” value in experiment [1] was “the warts multiplied and spread”; in experiment [1] (listed as salicylic acid), “failed to eradicate the viral lesions”. Consider `Nc1nc2c(ncn2COCCO)c(=O)[nH]1` [acyclovir], for which the “effect on lesions caused by Molluscum contagiosum” value in experiment [2] was “no effect”.
